Article PMC9467586, “Development of novel 9-O-substituted-13-octylberberine derivatives as potential anti-hepatocellular carcinoma agents” (Journal of Enzyme Inhibition and Medicinal Chemistry, 2022)

Legend:
HepG2 cells [1] = assay: In vitro antiproliferative MTT assay, HepG2 cells; assay type: cell-based, human; conditions: Homo sapiens, 72 h, mean ± SD (n = 3), read-out: IC50 (antiproliferative activity against HepG2 cells)
Description: (§1) HepG2, Sk-Hep-1, Huh-7, Hep3B and L-02 cells were purchased from Nanjing Key Gen Biotech Co. Ltd. (Nanjing, China). The cytotoxicity of test compounds was determined using an MTT assay. Briefly, the cell lines were incubated at 37 °C in a humidified 5% CO2 incubator for 24 h in 96-microwell plates. After medium removal, 100 μL of culture medium with 0.1% DMSO containing test compounds at different concentrations was added to each well and incubated at 37 °C for another 72 h. The MTT (5 mg/mL in PBS) was added and incubated for another 4 h, the optical density was detected with a microplate reader at 490 nm. The IC50 values were calculated according to the dose-dependent curves. All the experiments were repeated in at least three independent experiments.

Hep3B cells = assay: In vitro antiproliferative MTT assay, Hep3B cells; assay type: cell-based, human; conditions: Homo sapiens, 72 h, mean ± SD (n = 3)
Description: as §1

duplex DNA (F10T) = assay: FRET-melting assay, F10T (duplex DNA model); assay type: binding; conditions: 2 μM compounds
HepG2 cells [2] = assay: Annexin V-FITC/PI apoptosis assay, flow cytometry; assay type: cell-based, human; conditions: 72 h (control 6.28%)
Description: Briefly, after treatment with or without 6k at indicated concentrations for 72 h, the cells were washed twice in PBS, centrifuged and resuspended in 500 μL AnnexinV binding buffer. The cells were then harvested, washed and stained with 5 μL Annexin V-FITC and 5 μL PI in the darkness for 15 min. Apoptosis was analysed using a FACS Calibur flow cytometer (BectoneDickinson, San Jose, CA, USA).

HepG2 cells [3] = assay: Mitochondrial membrane potential (MMP) measurement with JC-1; assay type: cell-based, human; conditions: 72 h (control 1.90%)
Description: HepG2 cells were incubated with 6k as described above. After incubation for 72 h, the cells were washed in PBS and resuspended in 500 μL JC-1 incubation buffer at 37 °C for 15 min. Then, […] was immediately assessed for a red fluorescence using a microplate reader (ELx80, Bio-Tek, USA). The fluorescent signal of monomers was measured with an excitation wavelength of 488 nm. The percentage of cells with healthy or collapsed mitochondrial membrane potentials was monitored by flow cytometry analysis (BectoneDickinson, San Jose, CA, USA).

[4] = test system: human hepatoma cells including HepG2, Sk-Hep-1 and Huh-7 cells; assay: Antiproliferative MTT assay, summary over human hepatoma cells; assay type: cell-based; conditions: read-out: IC50 values against human hepatoma cells (span over cell lines)
Description: as §1

CCCCCCCCc1c2[n+](cc3c(OCCCCCCCCN4CCN(C)CC4)c(OC)ccc13)CCc1cc3c(cc1-2)OCO3.[Br-] [Compound 6k, 10-Methoxy-9-((8–(4-methylpiperazin-1-yl)octyl)oxy)-13-octyl-5,6-dihydro-[1,3]dioxolo[4,5-g]isoquinolino[3,2-a]isoquinolin-7-ium bromide]
IC50 (HepG2 cells [1]): 760 ± 60 nM | IC50 (Hep3B cells): 1600 ± 110 nM | ΔTm(B) = Tm(F10T + compound) - Tm(F10T) (duplex DNA (F10T)): 0.8 °C | total apoptotic cells (Q2 + Q3) (HepG2 cells [2]; HepG2, 0.25 μM): 16.42% | total apoptotic cells (Q2 + Q3) (HepG2 cells [2]; HepG2, 0.50 μM): 34.29% | total apoptotic cells (Q2 + Q3) (HepG2 cells [2]; HepG2, 1.0 μM): 59.17% | percentage of cells with green fluorescence (JC-1) (HepG2 cells [3]; HepG2, 0.25 μM): 10.33% | percentage of cells with green fluorescence (JC-1) (HepG2 cells [3]; HepG2, 1.0 μM): 37.52% | IC50 [4]: 620 to 1690 nM | melting point: 151 to 153 °C
